The IC50 is the midpoint of a concentration-inhibition curve.

The values below come from US10125134B2 (Mirati Therapeutics, Inc., priority 2016, dated 2018).

Like-named read-outs stand apart in the source and are kept apart here. Bounds are passed on as bounds.

The target of one assay is KRas G12C (Homo sapiens, UniProt P01116, C118S/C51S/C80L/G12C). Kind of assay: KRas G12C Modification Assay (LCMS detection of covalent adduct). Particulars: normalized percent of control; tested at 5 μM concentration for 3 hours. The assay is classed as binding. On the procedure: A 10 μL aliquot of each protein solution was then transferred to a 384 well microtiter plate. Initial compound stocks were generated at fifty times their desired final assay concentration in DMSO.
Exemplary compounds of Formula (I) were diluted 25-fold into K-Ras Assay Buffer to a final of two times their final concentration. A 10 μL aliquot of each diluted compound solution was then added to each of the protein solutions in the microtiter plate to initiate reaction. […] At each time point, the reactions were quenched with 20 μL of a 25 mM acetic acid solution. […] Once all reactions were quenched, the plates were heat sealed and the samples were injected into a LC/MS system for data acquisition.
Samples were injected in their liquid phase onto a C-3 reverse phase column to remove assay buffer and prepare the samples for mass spectrometer. The proteins were eluted from the column using an acetonitrile gradient and fed directly into the mass analyzer. Initial raw data analysis took place in Agilent MassHunter software immediately post data acquisition.
Raw data analysis of the intact protein was exclusively a deconvolution of the multiple charge states of each protein in solution using a maximum entropy deconvolution provided in Mass Hunter. To minimize complexity, only the data over limited mass ranges were considered for analysis, with a minimum of one Dalton mass step intervals. The heights of all masses identified during raw data analysis were exported to be further analyzed in Spotfire® data analysis software.
Final data analysis was a multistep process in the Spotfire® data analysis software package. Briefly, each protein mass was calculated as a percent of the total signal of that sample, that percentage was then normalized to the percentage of signal of the protein in the absence of reactive compounds. Those normalized signals were reported as normalized percent of control (POC). […] Key: “A”≤25% POC; “B”>25% POC−≤50% POC; “C”>50% POC and ND=not determined.

Assay [1] concerns NCI-H358 cells (express KRas G12C), Phospho-ERK. Briefly: Cellular inhibition of KRas G12C: Phospho-ERK in NCI-H358 cells. The assay is classed as cell-based. Particulars: Homo sapiens, pERK(Thr202/Tyr204) normalized with GAPDH, NCI-H358 cells, 3 hours, read-out: IC50. On the procedure:
The cellular inhibition of KRAs G12C by exemplary compounds of the present invention was determined by measuring the amount of a downstream marker of KRas activity, phosphorylated ERK (“Phospho-ERK”).
Cells were plated in poly-D-Lysine coated 96-well plates at a concentration of 50,000 cells/well and allowed to attach for 8-12 hours. Diluted compounds were then added at a final concentration of 0.5% DMSO. After 3 hours, the medium was removed, 150 μL of 4% formaldehyde was added and the plates were incubated for 20 minutes. The plates were washed with PBS, and permeabilized using 150 μL of ice cold 100% methanol for 10 minutes. Non-specific antibody binding to the plates was blocked using 100 μL Licor Blocking Buffer (Li-Cor Biotechnology, Lincoln Nebr.) for 1 hour at room temperature. Positive control samples and samples lacking cells were parallel processed with test samples as standards.
The amount Phospho-ERK was determined using an antibody specific for the phosphorylated form of ERK and compared to the amount of GAPDH. […] The plates were incubated for 2 hours at room temperature. The plates were washed with PBS+0.05% Tween 20.
Secondary antibodies used to visualize primary antibodies were added as follows: Anti-rabbit-680 diluted 1:1000 and Anti-mouse-800 diluted 1:1000 in Licor Block+0.05% Tween 20 and incubated for 1 hour at room temperature. The plates were washed with PBS+0.05% Tween 20. A 100 μL aliquot of PBS was added to each well and the plates were read on a LICOR AERIUS plate reader.
The pERK(Thr202/Tyr204) signal was normalized with the GAPDH signal and percent of DMSO control values were calculated. IC50 values were generated using a 4 parameter fit of the dose response curve. Key: “A”≥0.0001−≤1 μM; and “B”>1 μM.

Turning to `C=CC(=O)N1CCN(c2ncnc3c2CCN(c2c(O)cccc2F)C3)CC1` [Example 4, 1-(4-(7-(2-fluoro-6-hydroxyphenyl)-5,6,7,8-tetrahydropyrido[3,4-d]pyrimidin-4-yl)piperazin-1-yl)prop-2-en-1-one], at KRas G12C, the POC entry is given as “A (“A”≤25% POC)”. The IC50 in assay [1] (NCI-H358, 3 h) was more than 1000 nM.
`C=CC(=O)N1CCN(c2ncnc3c2CCN(c2cc(O)ccc2F)C3)CC1` [Example 5, 1-(4-(7-(2-fluoro-5-hydroxyphenyl)-5,6,7,8-tetrahydropyrido[3,4-d]pyrimidin-4-yl)piperazin-1-yl)prop-2-en-1-one]: on KRas G12C, the POC result is listed as “A (“A”≤25% POC)”. Besides, in assay [1] (NCI-H358, 3 h), the IC50 was more than 1000 nM.
As to `C=CC(=O)N1CCN(c2ncnc3c2CC(C)N(c2cc(O)cc4ccccc24)C3)CC1` (stereo not drawn) [Example 6, 1-(4-(7-(3-hydroxynaphthalen-1-yl)-6-methyl-5,6,7,8-tetrahydropyrido[3,4-d]pyrimidin-4-yl)piperazin-1-yl)prop-2-en-1-one], the POC entry on KRas G12C is “B (“B”>25% POC−≤50% POC)”. Moreover, the IC50 in assay [1] is more than 1000 nM.
With `C=CC(=O)N1CCN(c2ncnc3c2CCN(c2c(C)ccc4[nH]ncc24)C3)CC1` [Example 7, 1-(4-(7-(5-methyl-1H-indazol-4-yl)-5,6,7,8-tetrahydropyrido[3,4-d]pyrimidin-4-yl)piperazin-1-yl)prop-2-en-1-one], on KRas G12C, the POC result is reported as “A (“A”≤25% POC)”. Moreover, in assay [1] (NCI-H358, 3 h), the IC50 was more than 1000 nM.
In the same order, the values of `C=CC(=O)N1CCN(c2nc(O[C@@H](C)CN(C)C)nc3c2CCN(c2cc(O)cc4ccccc24)C3)CC1` [Example 8, (S)-1-(4-(2-((1-(dimethylamino)propan-2-yl)oxy)-7-(3-hydroxynaphthalen-1-yl)-5,6,7,8-tetrahydropyrido[3,4-d]pyrimidin-4-yl)piperazin-1-yl)prop-2-en-1-one] are “B (“B”>25% POC−≤50% POC)” and more than 1000 nM.
The corresponding values for `C=CC(=O)N1CCN(c2nc(OCCN(C)C)nc3c2CCN(c2cc(O)cc4ccccc24)C3)CC1` [Example 9, 1-(4-(2-(2-(dimethylamino)ethoxy)-7-(3-hydroxynaphthalen-1-yl)-5,6,7,8-tetrahydropyrido[3,4-d]pyrimidin-4-yl)piperazin-1-yl)prop-2-en-1-one] are “C (“C”>50% POC)” and more than 1000 nM.
Regarding `C=CC(=O)N1CCN(c2nc(OCCCN(C)C)nc3c2CCN(c2cc(O)cc4ccccc24)C3)CC1` [Example 10, 1-(4-(2-(3-(dimethylamino)propoxy)-7-(3-hydroxynaphthalen-1-yl)-5,6,7,8-tetrahydropyrido[3,4-d]pyrimidin-4-yl)piperazin-1-yl)prop-2-en-1-one], the POC result at KRas G12C is reported as “C (“C”>50% POC)”. In assay [1] (NCI-H358, 3 h), the IC50 was more than 1000 nM.
The corresponding values for `C=CC(=O)N1CCN(c2nc(OC(C)CN(C)C)nc3c2CCN(c2cc(O)cc4ccccc24)C3)CC1` (stereo not drawn) [Example 11, 1-(4-(2-((1-(dimethylamino)propan-2-yl)oxy)-7-(3-hydroxynaphthalen-1-yl)-5,6,7,8-tetrahydropyrido[3,4-d]pyrimidin-4-yl)piperazin-1-yl)prop-2-en-1-one] are “C (“C”>50% POC)” and 0.1 to 1000 nM.
In the case of `C=CC(=O)N1CCN(c2nc(N3CCN(C)CC3)nc3c2CCN(c2cc(O)cc4ccccc24)C3)CC1` [Example 12, 1-(4-(7-(3-hydroxynaphthalen-1-yl)-2-(4-methylpiperazin-1-yl)-5,6,7,8-tetrahydropyrido[3,4-d]pyrimidin-4-yl)piperazin-1-yl)prop-2-en-1-one], at KRas G12C, the POC entry is listed as “C (“C”>50% POC)”. Moreover, in assay [1] (NCI-H358, 3 h), the IC50 was more than 1000 nM.
In the same order, the values of `C=CC(=O)N1CCN(c2nc(N3CCC(N(C)C)C3)nc3c2CCN(c2cc(O)cc4ccccc24)C3)CC1` (stereo not drawn) [Example 13, 1-(4-(2-(3-(dimethylamino)pyrrolidin-1-yl)-7-(3-hydroxynaphthalen-1-yl)-5,6,7,8-tetrahydropyrido[3,4-d]pyrimidin-4-yl)piperazin-1-yl)prop-2-en-1-one] are “C (“C”>50% POC)” and more than 1000 nM.
As to `C=CC(=O)N1CCN(c2nc(OCCN(C)C)nc3c2CCN(c2cc(O)cc4ccccc24)C3)C[C@@H]1C` [Example 14], the POC result at KRas G12C is listed as “C (“C”>50% POC)”. In addition, in assay [1] (NCI-H358, 3 h), the IC50 is more than 1000 nM.
The corresponding values for `C=CC(=O)N1CCN(c2nc(OCCN(C)C)nc3c2CCN(c2cc(O)cc4ccccc24)C3)C[C@H]1C` [Example 15, (R)-1-(4-(2-(2-(dimethylamino)ethoxy)-7-(3-hydroxynaphthalen-1-yl)-5,6,7,8-tetrahydropyrido[3,4-d]pyrimidin-4-yl)-2-methylpiperazin-1-yl)prop-2-en-1-one] are “C (“C”>50% POC)” and more than 1000 nM.
The corresponding values for `C=CC(=O)N1CC2(C1)CN(c1nc(OCCN(C)C)nc3c1CCN(c1cc(O)cc4ccccc14)C3)C2` [Example 16, 1-(6-(2-(2-(dimethylamino)ethoxy)-7-(3-hydroxynaphthalen-1-yl)-5,6,7,8-tetrahydropyrido[3,4-d]pyrimidin-4-yl)-2,6-diazaspiro[3.3]heptan-2-yl)prop-2-en-1-one] are “C (“C”>50% POC)” and more than 1000 nM.
In the same order, the values of `C=CC(=O)N1CCN(c2nc(N3CCC(N(C)C)CC3)nc3c2CCN(c2cc(O)cc4ccccc24)C3)CC1` [Example 17, 1-(4-(2-(4-(dimethylamino)piperidin-1-yl)-7-(3-hydroxynaphthalen-1-yl)-5,6,7,8-tetrahydropyrido[3,4-d]pyrimidin-4-yl)piperazin-1-yl)prop-2-en-1-one] are “B (“B”>25% POC−≤50% POC)” and more than 1000 nM.
`C=CC(=O)N1CC2(C1)CN(c1nc(OC(C)CN(C)C)nc3c1CCN(c1cc(O)cc4ccccc14)C3)C2` (stereo not drawn) [Example 18, 1-(6-(2-((1-(dimethylamino)propan-2-yl)oxy)-7-(3-hydroxynaphthalen-1-yl)-5,6,7,8-tetrahydropyrido[3,4-d]pyrimidin-4-yl)-2,6-diazaspiro[3.3]heptan-2-yl)prop-2-en-1-one]: the POC entry on KRas G12C was “C (“C”>50% POC)”. The IC50 in assay [1] was more than 1000 nM.
`C=CC(=O)N1CCN(c2nc(O[C@H](C)CN(C)C)nc3c2CCN(c2cc(O)cc4ccccc24)C3)CC1` [Example 19, (R)-1-(4-(2-((1-(dimethylamino)propan-2-yl)oxy)-7-(3-hydroxynaphthalen-1-yl)-5,6,7,8-tetrahydropyrido[3,4-d]pyrimidin-4-yl)piperazin-1-yl)prop-2-en-1-one]: the POC result on KRas G12C was “C (“C”>50% POC)”. For the same compound, the IC50 in assay [1] (NCI-H358, 3 h) lay in the range of 0.1 to 1000 nM.
As for `C=CC(=O)N1CC2(C1)CN(c1nc(OCCCN(C)C)nc3c1CCN(c1cc(O)cc4ccccc14)C3)C2` [Example 20, 1-(6-(2-(3-(dimethylamino)propoxy)-7-(3-hydroxynaphthalen-1-yl)-5,6,7,8-tetrahydropyrido[3,4-d]pyrimidin-4-yl)-2,6-diazaspiro[3.3]heptan-2-yl)prop-2-en-1-one], on KRas G12C, the POC entry is reported as “C (“C”>50% POC)”. Further, the IC50 in assay [1] (NCI-H358, 3 h) is more than 1000 nM.
Turning to `C=CC(=O)N1CCN(c2nc(OC(C)CCN(C)C)nc3c2CCN(c2cc(O)cc4ccccc24)C3)CC1` (stereo not drawn) [Example 21, 1-(4-(2-((4-(dimethylamino)butan-2-yl)oxy)-7-(3-hydroxynaphthalen-1-yl)-5,6,7,8-tetrahydropyrido[3,4-d]pyrimidin-4-yl)piperazin-1-yl)prop-2-en-1-one], on KRas G12C, the POC result is “C (“C”>50% POC)”. Moreover, in assay [1] (NCI-H358, 3 h), the IC50 was in the range of 0.1 to 1000 nM.
